Patent publication US20090270448A1, “PHARMACEUTICAL FORMULATIONS COMPRISING CLOPIDOGREL” (ACINO PHARMA AG, priority 2006, published 2009)
Structures can show the parent of a compound that is named as a salt.

What was measured:
[1] = Storage stability of clopidogrel besylate and melt granulates containing it (HPLC impurities); type: physicochemical
Experimental: The stability on storage of clopidogrel besylate salt (CLO.Bes) is examined in comparison to melt granulates containing it. The main degradation product is alpha-(2-chlorophenyl)-4,5,6,7-tetrahydrothieno[3,2-c]pyridine-5-acetic acid, hereinafter designated as “ImpA” (ImpA is named according to USP 29 and corresponds to the hydrolysis product of Clopidogrel). In addition, the sum of all impurities (“SumImp”) is determined. Both ImpA and SumImp are expressed as percent by weight of the amount of the clopidogrel salt at the beginning of the experiment on day 0 and are determined using the HPLC-system described below.
In the below Table 1 for example the term “10% PEG 6000” means the melt granulate consisting of 10% by weight PEG 6000 and 90% by weight clopidogrel besylate, 30% PEG 6000 means the melt granulate consisting of 30% by weight PEG 6000 and 70% by weight clopidogrel besylate, etc.
The above-mentioned HPLC system is as follows:
Column: 250 mm×4.6 mm Modulo-Cart QS Uptisphere HDO, 3 μm
Detector: UV Detector or DAD Detector
Eluent A: 0.01M sodium phosphate dibasic aqueous solution (1.78 g Na2HPO4*2H2O/l), adjusted to pH 3.0±0.05 with phosphoric acid 85%
Mobile phase: 35% Eluent A+65% Eluent B
Preparation of Reference and Sample Solutions:
Approximately 55.92 mg of clopidogrel besilate reference substance are weighed into a 50 ml volumetric flask. Add 20 ml of mobile phase and sonicate in an ultrasonic bath at ambient temperature until the substance is dissolved (approx. 5 min). Make up to the mark with mobile phase. The concentration of clopidogrel besilate is 0.75 mg/ml as free base. Two independent reference solutions are prepared.
Sample Solution for 75 mg Tablets
Weigh 10 tablets and transfer them quantitatively into a 250 ml volumetric flask. Dissolve and make up to the mark with mobile phase. Dilute 25.0 ml to 100.0 ml with mobile phase. Filter through a 0.45 μm PTFE-filter in a HPLC vial. The concentration of clopidogrel is 0.75 mg/ml as free base. Two independent sample solutions are prepared.

[2] = Storage stability of clopidogrel hydrochloride and melt granulates containing it (HPLC impurities); type: physicochemical
Experimental: The stability on storage of clopidogrel hydrochloride salt (CLO.HCl) has been examined in comparison to melt granulates containing it. The main degradation product is alpha-(2-chlorophenyl)-4,5,6,7-tetrahydrothieno[3,2-c]pyridine-5-acetic acid, hereinafter designated as “ImpA” (impurity acid). In addition, the sum of all impurities (“SumImp”) is determined by HPLC analogously as described above for clopidogrel besylate. Both ImpA and SumImp are expressed as percent by weight of the amount of the clopidogrel salt at the beginning of the experiment on day 0. The granulates mentioned in the below Table 2 are melt granulates consisting of 50% by weight of PEG 6000 and 50% clopidogrel hydrochloride, and 50% Compritol 888 ATO and 50% clopidogrel hydrochloride, respectively.

[3] = Day 0, percent by weight of the clopidogrel salt at day 0, HPLC
[4] = Day 15 at 50° C. and 75% relative humidity
[5] = Day 30 at 40° C. and 75% relative humidity

| SMILES | ImpA [%] [1, 3] | SumImp [%] ([1]; Day 0, sum of all impurities, percent by weight of the clopidogrel salt at day 0, HPLC) | ImpA [%] [1, 4] | SumImp [%] [1, 4] | SumImp [%] ([2]; Day 0) | ImpA [%] [2, 3] | ImpA [%] [2, 5] | SumImp [%] [2, 5] | impurities relative to clopidogrel hydrochloride stabilized in the melt granulates ([2]; after storage for 30 days at 40° C. and 75% relative humidity) |
| --- | --- | --- | --- | --- | --- | --- | --- | --- | --- |
| COC(=O)[C@H](c1ccccc1Cl)N1CCc2sccc2C1 [CLO•Bes, clopidogrel besylate] | 0.09% | 0.24% | 0.34% | 0.52% | – | – | – | – | – |
| COC(=O)[C@H](c1ccccc1Cl)N1CCc2sccc2C1 [CLO•HCl, clopidogrel hydrochloride] | – | – | – | – | 0.58% | 0.18% | 1.28% | 1.99% | nearly twice as much impurities |
